System: Huh7 psiCHECK-miR122 Renilla luciferase reporter, 48 h
Test: suppression of miR-122 activity, Renilla luciferase sensor – cell-based, Huh7 psiCHECK-miR122, cherry-pick, dose response (AID 652053)

| Structure (SMILES) | AC40 [µM] |
| --- | --- |
| Cc1cc(C)cc(NS(=O)(=O)c2ccc(NC(=S)NC(=O)c3ccc(Br)o3)cc2)c1 | 0.769 |
| O=C(CN(C1CCCCC1)S(=O)(=O)c1ccc(F)cc1)Nc1ccc2c(c1)OCO2 | 6.36 |
| CCN1C(=O)c2cccc3c(S(=O)(=O)NCCc4c[nH]c5ccccc45)ccc1c23 | 3.09 |
| Cc1cc(C(=O)Nc2cccc3c2O[C@@H](CN(C)Cc2ccc(C(F)(F)F)cc2)[C@H](C)CN([C@H](C)CO)C3=O)n(C)n1 | 3.62 |
| Cc1ccc(S(=O)(=O)Nc2ccc3c(c2)CC(=O)N([C@H](C)CO)C[C@@H](C)[C@H](CN(C)Cc2ccc(C(=O)Nc4ccccc4N)cc2)O3)cc1 | 17.2 |
| S=C(Nc1ccc(Cl)c(Cl)c1)NC1CCCCC1 | 1.37 |
| C[C@H](CO)N1C[C@H](C)[C@@H](CN(C)Cc2ccc3c(c2)OCO3)Oc2c(NC(=O)c3ccncc3)cccc2C1=O | 13.1 |
| Cc1ccc(OP(=O)(Nc2cccc(C)c2)Oc2ccc(C)cc2)cc1 | 6.66 |
| COc1ccc(NC(=O)c2cccc(S(=O)(=O)Nc3ccc(Br)cc3)c2)cn1 | 2.11 |
| CCOC(=O)Nc1ccc(NS(=O)(=O)c2ccc(C)cc2)cc1 | 8.82 |
| CCOC(=O)c1c(C)[nH]c(C)c1S(=O)(=O)NCCCc1ccco1 | 5.96 |
| COc1ccc(OC)c(C(c2nnnn2C2CCCC2)N2CCN(c3ccccc3F)CC2)c1 (stereo unspecified) | 12.3 |
| COc1ccccc1NS(=O)(=O)c1cc(NC(=O)c2cc(=O)[nH]c3ccccc23)ccc1N1CCOCC1 | 1.01 |
| CCOc1cc(C)c(S(=O)(=O)NCCCn2ccnc2)cc1C | 5.88 |
| OCC1OC(n2cnc3c(NCc4ccccc4O)ncnc32)C(O)C1O (stereo unspecified) | 3.86 |
| Cc1ccc(C(=O)Nc2ccc(Cl)cc2C(=O)c2ccccc2)cc1 | 18.6 |
| CC(=O)Nc1ccc(C(=O)Nc2ccc(S(=O)(=O)NCC3CCCO3)cc2)cc1 (stereo unspecified) | 2.69 |
| CCCn1c(NC(=O)c2cccc(C)c2C)nc2ccccc21 | 16.2 |
| COc1ccc(F)cc1S(=O)(=O)Nc1ccc2c(c1)OCO2 | 5.47 |
| O=C(Nc1sc2c(c1C(=O)O)CCCCC2)c1ccco1 | 2.49 |
| C[C@@H]1CN([C@H](C)CO)C(=O)c2cc(N(C)C)ccc2O[C@@H]1CN(C)S(=O)(=O)c1ccc(Cl)cc1 | 6.57 |
| C[C@H](CO)N1C[C@H](C)[C@@H](CN(C)Cc2ccc3c(c2)OCO3)Oc2c(NC(=O)NC3CCCCC3)cccc2C1=O | 2.53 |
| C[C@H](CO)N1C[C@H](C)[C@H](CN(C)Cc2ccc(Cl)c(Cl)c2)Oc2c(NC(=O)Nc3ccc4c(c3)OCO4)cccc2C1=O | 4.58 |
| O=S(=O)(Nc1cccc(-c2cn3ccsc3n2)c1)c1ccc(F)cc1 | 6.48 |
| COc1ccc(N(CC(=O)Nc2cc(C)on2)S(=O)(=O)c2cc(C)ccc2C)cc1 | 5.67 |
| CC(C)CNS(=O)(=O)c1cc2c3c(c1)CCC(=O)N3CCC2 | 9.58 |

| Structure (SMILES) | AC40 [µM] |
| --- | --- |
| O=C(Nc1ccc2c(c1)CCC2)c1cc(S(=O)(=O)Nc2ccc(F)cc2)c(Cl)cc1Cl | 4.1 |
| COc1ccc(NC(C)=O)cc1S(=O)(=O)Nc1ccc(S(=O)(=O)N2CCCCC2)cc1 | 2.62 |
| Cc1ccc(S(=O)(=O)N/N=C/c2ccc(OCC(=O)Nc3ccccc3Cl)cc2)cc1 | 5.89 |
| C[C@H](CO)N1C[C@H](C)[C@H](CN(C)Cc2ccc(C(=O)Nc3ccccc3N)cc2)Oc2ccc(NC(=O)Nc3ccc4c(c3)OCO4)cc2CC1=O | 8.06 |
| Cc1cccc(NS(=O)(=O)c2ccc(C3CCCCC3)cc2)c1 | 13.2 |
| C[C@H](CO)N1C[C@H](C)[C@@H](CN(C)CC2CCCCC2)Oc2c(NC(=O)c3ccncc3)cccc2C1=O | 1.97 |
| CCCCCCNS(=O)(=O)c1ccc(Cl)s1 | 13.9 |
| COc1cc(S(=O)(=O)N2CCCCCC2)c(OC)cc1Br | 1.74 |
| C[C@H](CO)N1C[C@H](C)[C@@H](CN(C)Cc2ccc(C(=O)Nc3ccccc3N)cc2)Oc2c(NC(=O)Nc3ccccc3)cccc2C1=O | 23.5 |
| CCNc1ccc(S(=O)(=O)N(C)C)cc1NCC(=O)Nc1ccc(F)c(Cl)c1 | 1.45 |
| C[C@@H]1CN([C@H](C)CO)C(=O)c2cccc(NC(=O)Nc3ccc(F)cc3)c2O[C@H]1CN(C)Cc1ccc(C(F)(F)F)cc1 | 1.51 |
| COc1ccc(C(C)(C)C)cc1S(=O)(=O)NCC1CCCO1 (stereo unspecified) | 0.329 |
| Cc1cc(C)c(S(=O)(=O)NC2CC3CCC2C3)c(C)c1 (stereo unspecified) | 0.6 |
| COc1ccccc1C(=O)Nc1ccc2c(c1)C(=O)N(C)[C@H]1CC[C@@H](CC(=O)NCc3ccc(Cl)c(Cl)c3)O[C@@H]1CO2 | 2.85 |
| O=C(c1ccccc1)C(O)(Cc1ccccc1)c1ccccc1 (stereo unspecified) | 8.14 |
| Cn1c(=O)n(C)c2cc(NS(=O)(=O)c3ccc(C(C)(C)C)cc3)ccc21 | 8.31 |
| CCOC(=O)c1c(C)[nH]c(C)c1S(=O)(=O)NCCc1ccco1 | 2.96 |
| CCCCNS(=O)(=O)c1ccc2nc(-c3cccnc3)cc(C(=O)NCCOC)c2c1 | 1.18 |
| CC(C)c1ccc(S(=O)(=O)Nc2ccc(-n3cnnn3)cc2)cc1 | 2.55 |
| COc1ccc(C(C)(C)C)cc1S(=O)(=O)n1ccnc1C | 4.82 |
| Clc1ccc2[nH]cc(-c3nnnn3-c3ccc4ccccc4c3)c2c1 | 6.75 |
| CCc1c(C(=O)Nc2ccc(OC)cc2)[nH]c(C)c1C(C)=O | 5.6 |
| C[C@H](CO)N1C[C@H](C)[C@H](CN(C)Cc2ccc3c(c2)OCO3)Oc2c(NC(=O)C3CCOCC3)cccc2C1=O | 10.5 |
| COc1ccccc1NS(=O)(=O)c1cccc(NC(=O)c2[nH]c(C)c(C(C)=O)c2C)c1 | 7.17 |
| CCc1ccc(S(=O)(=O)Nc2ccc(Cl)cn2)cc1 | 8.84 |

Source: PubChem BioAssay AID652053 (Broad Institute, 2013)
